Assay results taken from PubChem BioAssay (NCI).
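How tested: cells in 96-well plates exposed to compound for 48 hours at five concentrations. TGI: total growth inhibition.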

Columns and labels:
Assay in all cases: growth of human tumour cells (NCI), 48 h
A549 NSCLC = test system: A549 NSCLC
CAKI-1 renal = test system: CAKI-1 renal
SK-MEL-28 melanoma = test system: SK-MEL-28 melanoma
MCF7 breast = test system: MCF7 breast
SNB-19 CNS = test system: SNB-19 CNS
RPMI-8226 leukemia = test system: RPMI-8226 leukemia
NCI-H460 lung = test system: NCI-H460 lung
MDA-MB-435 = test system: MDA-MB-435
KM12 colon = test system: KM12 colon
PC-3 prostate = test system: PC-3 prostate
SN12C renal = test system: SN12C renal
HOP-62 NSCLC = test system: HOP-62 NSCLC
RXF 393 renal = test system: RXF 393 renal
SR leukemia = test system: SR leukemia
SK-MEL-5 melanoma = test system: SK-MEL-5 melanoma
SF-268 CNS = test system: SF-268 CNS
LOX IMVI melanoma = test system: LOX IMVI melanoma
A498 renal = test system: A498 renal
MOLT-4 leukemia = test system: MOLT-4 leukemia
SF-295 CNS = test system: SF-295 CNS
M14 melanoma = test system: M14 melanoma
786-0 renal = test system: 786-0 renal
T-47D breast = test system: T-47D breast
U251 CNS = test system: U251 CNS
MDA-N = test system: MDA-N
EKVX NSCLC = test system: EKVX NSCLC
DU-145 prostate = test system: DU-145 prostate
SW-620 colon = test system: SW-620 colon
OVCAR-5 ovarian = test system: OVCAR-5 ovarian
SK-OV-3 ovarian = test system: SK-OV-3 ovarian
NCI/ADR-RES ovarian = test system: NCI/ADR-RES ovarian
MALME-3M melanoma = test system: MALME-3M melanoma
NCI-H226 lung = test system: NCI-H226 lung
ACHN renal = test system: ACHN renal
IGROV1 ovarian = test system: IGROV1 ovarian
HCT-116 colon = test system: HCT-116 colon
NCI-H522 lung = test system: NCI-H522 lung
SNB-75 CNS = test system: SNB-75 CNS
OVCAR-8 ovarian = test system: OVCAR-8 ovarian
BT-549 breast = test system: BT-549 breast
K-562 leukemia = test system: K-562 leukemia
HCC-2998 colon = test system: HCC-2998 colon
MDA-MB-231 breast = test system: MDA-MB-231 breast
HCT-15 colon = test system: HCT-15 colon
OVCAR-4 ovarian = test system: OVCAR-4 ovarian
COLO 205 colon = test system: COLO 205 colon
TK-10 renal = test system: TK-10 renal
HS 578T breast = test system: HS 578T breast
UACC-62 melanoma = test system: UACC-62 melanoma
NCI-H23 lung = test system: NCI-H23 lung
UACC-257 melanoma = test system: UACC-257 melanoma
HL-60(TB) leukemia = test system: HL-60(TB) leukemia
SF-539 CNS = test system: SF-539 CNS
HT29 colon = test system: HT29 colon
SK-MEL-2 melanoma = test system: SK-MEL-2 melanoma
OVCAR-3 ovarian = test system: OVCAR-3 ovarian
UO-31 renal = test system: UO-31 renal
CCRF-CEM leukemia = test system: CCRF-CEM leukemia
HOP-92 NSCLC = test system: HOP-92 NSCLC

Measured: TGI

NNC(=O)CCSc1ccccc1
not listed: HOP-92 NSCLC
> 100 µM: all other assays above

CC1CC/C(=C\c2ccc(N(C)C)cc2)C2=C1C(c1ccc(N(C)C)cc1)NC(=S)N2 (stereo unspecified)
not listed: A549 NSCLC | NCI-H460 lung | HOP-62 NSCLC | SR leukemia | NCI-H522 lung | HCC-2998 colon | OVCAR-4 ovarian | HOP-92 NSCLC
> 100 µM: all other assays above

COc1cc(/C=N\c2nc(-c3ccc(NS(=O)(=O)c4ccc(Cl)c(OC)c4)cc3)cs2)ccc1O
88.8 µM: NCI-H23 lung
59.1 µM: T-47D breast
74.2 µM: RPMI-8226 leukemia
36.5 µM: UACC-62 melanoma
60.9 µM: NCI-H522 lung
83 µM: BT-549 breast
80.8 µM: RXF 393 renal
74 µM: HL-60(TB) leukemia
56.2 µM: MCF7 breast
not listed: NCI-H460 lung | A498 renal | U251 CNS | HCC-2998 colon | MDA-MB-231 breast | TK-10 renal | UACC-257 melanoma
> 100 µM: all other assays above
